Source: PMC3792051, “Polyenylpyrrole Derivatives Inhibit NLRP3 Inflammasome Activation and Inflammatory Mediator Expression by Reducing Reactive Oxygen Species Production and Mitogen-Activated Protein Kinase Activation” (PLoS ONE, 2013)

Key:
[1] = tested on: NLRP3 inflammasome in LPS+ATP-activated J774A.1 macrophages; test: NLRP3 inflammasome activation (IL-1β ELISA, caspase-1 p10 Western blot); format: cell-based, mouse; conditions: then ATP 5 mM 30 min
Protocol: The effects of the test samples on IL-1β, TNF-α, and IL-6 production were measured by ELISA according to the manufacturer’s instructions. In brief, 50 µl of biotinylated antibody reagent and 50 µl of supernatant were added to a stripwell plate precoated with anti-mouse IL-1β, TNF-α, or IL-6 antibodies, which was then incubated at room temperature for 2 h. After washing the plate three times with washing buffer, 100 µl of diluted streptavidin-HRP concentrate was added to each well and the plate incubated at room temperature for 30 min. The washing process was repeated, then 100 µl of a premixed tetramethylbenzidine substrate solution was added to each well and the plate incubated at room temperature in the dark for 30 min. After addition of 100 µl of stop solution to each well, the absorbance at 450 nm of each well was measured on a microplate reader.
(§1) Cells were washed twice with ice-cold phosphate-buffered saline (PBS) and lysed on ice for 5 min with lysis buffer (20 mM Tris-HCl, pH 7.5, 150 mM NaCl, 1 mM Na 2EDTA, 1 mM EGTA, 1% Triton X-100, 2.5 mM sodium pyrophosphate, 1 mM beta-glycerophosphate, 1 mM Na 3VO4, 1 µg/ml of leupeptin, 1 mM PMSF, protease inhibitor cocktail). The lysate was then centrifuged at 12,000 x g at 4 °C for 10 min and the pellet discarded. Proteins in the supernatant were separated by SDS-PAGE and electrotransferred to a PVDF membrane (EMD Millipore Corporation), which was then blocked by incubation for 1 h at room temperature in blocking buffer [(5% nonfat milk in PBS containing 0.1% Tween 20 (PBST)], then incubated for 2 h at room temperature with the primary antibody diluted in blocking buffer. After three washes in PBST, the membrane was incubated for 1 h at room temperature with an appropriate HRP-conjugated secondary antibody diluted in blocking buffer and developed using an enhanced chemiluminescence Western blot detection system (EMD Millipore Corporation).
ATP is known to activate the NLRP3 inflammasome in LPS-primed macrophages, leading to caspase-1 activation and IL-1β secretion. To examine whether compound 1h could affect NLRP3 inflammasome activation, the mouse macrophage cell line J774A.1 was used (RAW 264.7 macrophages are not suitable for studying the NLRP3 inflammasome). […]
Figure 4 Effect of compound 1h on NLRP3 inflammasome activation in LPS+ATP-activated J774A.1 macrophages. (A) J774A.1 macrophages (1 × 10^6/ml; 1 ml) or (B) peritoneal macrophages (1 × 10^5/ml; 1 ml) were incubated with 10-40 µM compound 1h or DMSO for 30 min, then LPS (1 µg/ml) was added and incubation continued for 5.5 h, then the cells were stimulated with ATP (5 mM) for an additional 30 min, then IL-1β in the culture medium was measured by ELISA (A, upper panel; B) and levels of active caspase-1 (p10) (A, lower panel) measured by Western blotting. In (C) and (D), J774A.1 macrophages (1 × 10^6/ml; 1ml) were incubated with LPS (1 µg/ml) for 5.5 h, then with 10-40 µM compound 1h or DMSO for 30 min in the continued presence of LPS, followed by stimulation with ATP (5 mM) for an additional 30 min, then IL-1β levels (C, upper panel) and IL-6 levels (D) in the culture medium were measured by ELISA and levels of active caspase-1 (p10) were measured by Western blotting (C, lower panel). […] In (E), J774A.1 macrophages (1 × 10^6/ml; 1 ml) were incubated for 30 min with DMSO or 1-40 µM compound 1h, then LPS (1 µg/ml) was added and incubation continued for 6 h, then expression of NLRP3 and proIL-1β was measured by Western blotting. […]

[2] = tested on: LPS-activated RAW 264.7 macrophages; test: NF-κB signaling (IKK-α/IκB-α Western blot, p65 nuclear translocation ELISA); format: cell-based, murine; conditions: RAW 264.7, 10-40 µM 30 min, LPS 20 min
Protocol: as §1
(§2) Nuclear proteins were extracted from RAW 264.7 and J774A.1 cells using a Nuclear Extract Kit (Active Motif) according to the manufacturer’s instructions and nuclear NF-κB p65 activation quantified using an ELISA-based TransAM NF-κB kit (Active Motif, Tokyo, Japan) according to the manufacturer’s protocol by reading the absorbance at 450 nm with a microplate absorbance reader (Bio-Rad Laboratories, Inc) and a reference wavelength of 655 nm.
(§3) Following LPS stimulation, IκB in the complex is phosphorylated by IκB kinase (IKK), ubiquitinated, and rapidly degraded in proteasomes, thus releasing NF-κB [30].
(§4) Figure 6 Effect of compound 1h on NF-κB activation in LPS-activated macrophages. (A) RAW 264.7 macrophages or (B) J774A.1 macrophages (both 5 × 10^5/ml; 1 ml) were incubated for 30 min with 10-40 µM compound 1h or DMSO, then LPS (1 µg/ml) was added and incubation continued for 20 min, then levels of phosphorylated and total IKK-α and IκB-α were measured by Western blotting. (C) RAW 264.7 macrophages or (D) J774A.1 macrophages (both 5 × 10^5/ml; 1 ml) were treated as in A and B, then nuclear translocation of NF-κB was analyzed by ELISA. (E) RAW-Blue^TM cells (5 × 10^5/ml; 1 ml) were incubated for 30 min with 2.5-40 µM compound 1h or DMSO, then LPS (1 µg/ml) was added and incubation continued for 24 h, then SEAP activity was measured by the QUANTI-Blue^TM assay and expressed as a percentage of that in the absence of compound 1h. In (A) and (B), the results are representative of those obtained in three different experiments. In (C-E), the data are expressed as the mean ± SD for three separate experiments. *, **, and *** indicate a significant difference at the level of p < 0.05, p < 0.01, and p < 0.001, respectively, compared to the DMSO/LPS group.

[3] = tested on: LPS-activated J774A.1 macrophages; test: as above; format: cell-based, murine; conditions: J774A.1, 10-40 µM 30 min, LPS 20 min
Protocol: as §1, §2, §3, §4

[4] = J774A.1, LPS 5.5 h first, then compound 10-40 µM 30 min
[5] = J774A.1, compound 10-40 µM 30 min before LPS 5.5 h

## O=c1cc(O)cc(/C=C/C=C/C=C/C=C/c2[nH]ccc2Cl)o1 [compound 1h]
[1]; [4]
  Caspase-1 activation (p10): not caspase-1 activation
  IL-1β secretion: inhibited the LPS-induced increase in IL-1β secretion
  IL-6 secretion: had no significant effect on IL-6 secretion
[1]; [5]
  Generation of active caspase-1 (p10): significantly inhibited
  IL-1β secretion: significantly inhibited IL-1β secretion
[2]
  IκB-α degradation: had a inhibitory effect on IκB-α degradation
  NF-κB nuclear translocation: inhibited NF-κB nuclear translocation
  Phosphorylation of IKK-α and IκB-α: inhibited phosphorylation of IKK-α and IκB-α in a dose-dependent manner
[3]
  IκB-α degradation: had a inhibitory effect on IκB-α degradation
  NF-κB nuclear translocation: inhibited NF-κB nuclear translocation
  Phosphorylation of IKK-α and IκB-α: inhibited phosphorylation of IKK-α and IκB-α in a dose-dependent manner
